The source made the active and inactive calls.

As usually defined, the half-life is the time needed for the level to fall by half in the phase considered. Lower therefore signals rapid decline. The EC50 is the concentration needed to bring the measured effect to its halfway point. The Ki is a dissociation constant, usually derived from enzyme kinetics or from competition with a known ligand.

For data set [1], the system named is Rattus norvegicus. As to the kind of experiment: Hypotensive activity in anesthetized Sprague-Dawley rat at 65 nmol/kg, iv as bolus dose. It counts as functional, organism-based.
The nature of data set [2]: Half life in rat plasma at 37 degC. It counts as ADME, cell-free.
In data set [3] the test system is Heart. Kind of data set: Inotropic activity in Langendorff perfused Sprague-Dawley rat heart assessed as increase in left ventricular developed pressure. It is filed as functional, tissue-based. Particulars: Heart left ventricle.
Data set [4] addresses T1, Apelin receptor (Homo sapiens, UniProt P35414).
T1 sequence (P35414 whole entry): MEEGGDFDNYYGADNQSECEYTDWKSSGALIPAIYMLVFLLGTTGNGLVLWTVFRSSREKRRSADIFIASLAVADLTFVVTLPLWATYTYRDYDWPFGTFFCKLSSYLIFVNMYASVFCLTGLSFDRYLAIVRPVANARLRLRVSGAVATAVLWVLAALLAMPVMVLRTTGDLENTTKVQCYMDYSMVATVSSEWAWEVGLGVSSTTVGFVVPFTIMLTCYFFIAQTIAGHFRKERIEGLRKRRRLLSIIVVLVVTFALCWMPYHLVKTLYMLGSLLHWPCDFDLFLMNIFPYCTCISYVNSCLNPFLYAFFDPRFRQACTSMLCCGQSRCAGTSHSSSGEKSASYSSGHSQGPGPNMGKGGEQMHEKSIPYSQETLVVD
Kind of data set: biochemical. It counts as cell-based, HEK293.

Data set [5] deals with T1, Apelin receptor. Kind of data set: Agonist activity at human APJ receptor expressed in HEK-293 cells assessed as beta-arrestin2 recruitment after 30 mins by BRET assay. It counts as cell-based, HEK293. For orientation: Activated receptors often draw arrestin, which recruitment assays turn into a signal.
In data set [6] the target is T1, Apelin receptor. Kind of data set: Agonist activity at human APJ receptor expressed in HEK-293 cells assessed as dissociation of G-alpha-i1 protein after 5 mins by BRET assay. It is filed as cell-based, HEK293.
For another data set, the system named is Plasma. Kind of data set: Drug level in rat plasma treated with ELA at 37 degC after 2 hrs by HPLC-MS analysis. It counts as ADME, cell-free.
The test system of data set [7] is Rattus norvegicus. Kind of data set: Hypotensive activity in anesthetized Sprague-Dawley rat assessed as drop in mean arterial pressure at 650 nmol/kg, iv as bolus dose. It is filed as functional, Artery.
Data set [8] concerns Rattus norvegicus. As to the kind of experiment: Inotropic activity in Sprague-Dawley rat assessed as induction of left ventricular fractional shortening at 36 pmol/g/min, iv through 24 hrs infusion measured after 6 to 24 hrs by echocardiography. It is filed as functional, organism-based. Particulars: Heart left ventricle.
Data set [9] concerns Rattus norvegicus. Kind of data set: Change in water intake in Sprague-Dawley rat at 36 pmol/g/min, iv through 24 hrs infusion measured during compound dosing. It is filed as functional, organism-based.
Data set [10] deals with Rattus norvegicus. As to the kind of experiment: Increase in daily urine output in Sprague-Dawley rat at 36 pmol/g/min, iv through 24 hrs infusion measured during compound dosing. It counts as functional, organism-based.
Data set [11] deals with Heart. Kind of data set: Inotropic activity in Langendorff perfused Sprague-Dawley rat heart assessed as increase in left ventricular developed pressure at 0.03 nM relative to control. It is filed as functional. Particulars: Heart left ventricle.
The subject of data set [12] is Rattus norvegicus. As to the kind of experiment: Hypotensive activity in anesthetized Sprague-Dawley rat assessed as maximal change in heart rate at 293 nmol/kg, iv as bolus dose. It is filed as functional, organism-based.
Data set [13] has as its system Rattus norvegicus. As to the kind of experiment: Hypotensive activity in anesthetized Sprague-Dawley rat assessed as induction of hypotensive rebound at 6.5 to 293 nmol/kg, iv as bolus dose. It is filed as functional, organism-based.
The subject of data set [14] is Rattus norvegicus. As to the kind of experiment: Decrease in K+ concentration in Sprague-Dawley rat urine at 36 pmol/g/min, iv through 24 hrs infusion relative to control. It counts as functional, organism-based.
Data set [15] deals with Rattus norvegicus. Kind of data set: Decrease in Na+ concentration in Sprague-Dawley rat urine at 36 pmol/g/min, iv through 24 hrs infusion relative to control. It is filed as functional, organism-based.
Data set [16] concerns Rattus norvegicus. Kind of data set: Change in plasma volume in Sprague-Dawley rat at 36 pmol/g/min, iv through 24 hrs infusion measured during compound dosing. It counts as functional, organism-based.
Data set [17] has as its system Rattus norvegicus. Kind of data set: Decrease in urine osmolality in Sprague-Dawley rat at 36 pmol/g/min, iv through 24 hrs infusion relative to control. It counts as functional, organism-based.

For the compound `CSCC[C@H](NC(=O)[C@H](N)CS)C(=O)N1CCC[C@H]1C(=O)N[C@@H](CC(C)C)C(=O)N[C@@H](Cc1cnc[nH]1)C(=O)N[C@@H](CO)C(=O)N[C@@H](CCCNC(=N)N)C(=O)N[C@H](C(=O)N1CCC[C@H]1C(=O)N[C@@H](Cc1ccccc1)C(=O)N1CCC[C@H]1C(=O)O)C(C)C`, the outcome in the data set on Rattus norvegicus [1] was inactive.

Regarding `CSCC[C@H](NC(=O)[C@H](CS)NC(=O)[C@H](CCCNC(=N)N)NC(=O)[C@H](CCCNC(=N)N)NC(=O)[C@@H]1CCC(=O)N1)C(=O)N1CCC[C@H]1C(=O)N[C@@H](CC(C)C)C(=O)N[C@@H](Cc1cnc[nH]1)C(=O)N[C@@H](CO)C(=O)N[C@@H](CCCNC(=N)N)C(=O)N[C@H](C(=O)N1CCC[C@H]1C(=O)N[C@@H](Cc1ccccc1)C(=O)N1CCC[C@H]1C(=O)O)C(C)C`, the half-life in data set [2] was less than 2 min. Further, the EC50 with Heart [3] was 0.0015 nM.

`CSCC[C@H](NC(=O)[C@@H]1CSSC[C@H](N)C(=O)N[C@@H](CC(C)C)C(=O)N[C@@H](CCC(N)=O)C(=O)N[C@@H](CCCNC(=N)N)C(=O)N[C@@H](CCCNC(=N)N)C(=O)N1)C(=O)N1CCC[C@H]1C(=O)N[C@@H](CC(C)C)C(=O)N[C@@H](Cc1cnc[nH]1)C(=O)N[C@@H](CO)C(=O)N[C@@H](CCCNC(=N)N)C(=O)N[C@H](C(=O)N1CCC[C@H]1C(=O)N[C@@H](Cc1ccccc1)C(=O)N1CCC[C@H]1C(=O)O)C(C)C` had a Ki at Apelin receptor [4] of 0.23 nM. Further, the half-maximal effective concentration (EC50) at Apelin receptor [5] stood at 151 nM; on Apelin receptor [6], 6.6 nM.

`CSCC[C@H](NC(=O)[C@@H]1CSSC[C@H](NC(=O)[C@H](CC(N)=O)NC(=O)[C@H](Cc2c[nH]cn2)NC(=O)[C@H](CCCCN)NC(=O)[C@H](CCCNC(=N)N)NC(=O)[C@H](CC(C)C)NC(=O)[C@@H](N)CCCCN)C(=O)N[C@@H](CC(C)C)C(=O)N[C@@H](CCC(N)=O)C(=O)N[C@@H](CCCNC(=N)N)C(=O)N[C@@H](CCCNC(=N)N)C(=O)N1)C(=O)N1CCC[C@H]1C(=O)N[C@@H](CC(C)C)C(=O)N[C@@H](Cc1c[nH]cn1)C(=O)N[C@@H](CO)C(=O)N[C@@H](CCCNC(=N)N)C(=O)N[C@H](C(=O)N1CCC[C@H]1C(=O)N[C@@H](Cc1ccccc1)C(=O)N1CCC[C@H]1C(=O)O)C(C)C`: in the data set on Plasma, the Drug metabolism result was “metabolite_detected”.

Turning to H-QRPVNLTMR-OH, in the data set on Plasma, the Drug metabolism entry is recorded as “metabolite_detected”.

On to `CSCC[C@H](NC(=O)[C@@H](N)CS)C(=O)N1CCC[C@H]1C(=O)N[C@@H](CC(C)C)C(=O)N[C@@H](Cc1cnc[nH]1)C(=O)N[C@@H](CO)C(=O)N[C@@H](CCCNC(=N)N)C(=O)N[C@H](C(=O)N1CCC[C@H]1C(=O)N[C@@H](Cc1ccccc1)C(=O)N1CCC[C@H]1C(=O)O)C(C)C`, for which the Activity in the data set on Rattus norvegicus [7] is reported as 10 mmHg.

For `CSCC[C@@H](NC(=O)[C@@H](CS)NC(=O)[C@@H](CCCNC(=N)N)NC(=O)[C@H](CCCNC(=N)N)NC(=O)[C@H]1CCC(=O)N1)C(=O)N1CCC[C@@H]1C(=O)N[C@H](CC(C)C)C(=O)N[C@H](Cc1cnc[nH]1)C(=O)N[C@H](CO)C(=O)N[C@H](CCCNC(=N)N)C(=O)N[C@@H](C(=O)N1CCC[C@@H]1C(=O)N[C@H](Cc1ccccc1)C(=O)N1CCC[C@@H]1C(=O)O)C(C)C`, the outcome in the data set on Rattus norvegicus [8], with Rattus norvegicus [10], in the data set with Heart [11], with Rattus norvegicus [12], with Rattus norvegicus [14] and in the data set with Rattus norvegicus [15] was Active. In the data set with Rattus norvegicus [17], the result was Active. Also, the result in the data set on Rattus norvegicus [9], in the data set with Rattus norvegicus [13] and in the data set with Rattus norvegicus [16] was inactive.

Source of the values: ChEMBL document CHEMBL3808382, “Discovery and Structure-Activity Relationship of a Bioactive Fragment of ELABELA that Modulates Vascular and Cardiac Functions” (J Med Chem, 2016).
